Data from patent publication US20080090906A1, “Use of Acetyl L-Carnitine In Combination With Propionyl L-Carnitine and Sildenafil for the Treatment of Erectile Dysfunction” (SIGMA-TAU INDUSTRIE FARMACEUTICHE RIUNITE S.P.A., priority 2004, published 2008).

Experiments:
[1] = system: Patients undergoing bilateral nerve-sparing radical retropubic prostatectomy (bnsrrp); assay: Randomised, double-blind placebo-controlled clinical trial: IIEF-15 scores after 4 months' treatment, bnsrrp patients; type: in vivo, human
Procedure: (§1) To assess the activity of the combination according to the invention for the treatment of erectile dysfunction, a randomised, double-blind placebo-controlled clinical trial was conducted.
(§2) The patients entered into the trial had to meet the following inclusion criteria: • erectile dysfunction secondary to radical retropubic prostatectomy, with or without bilateral sparing of the neurovascular bundles, in patients in whom the prostatectomy had been performed at least 6 months but less than 2 years prior to entry into the clinical trial; • complete erectile function prior to the prostatectomy (this information had to be confirmed by the partner or documented in the patient's hospital file; • not on medical treatment for prostate cancer; • not on treatment for erectile dysfunction before or after prostatectomy; • normal total and free prostate antigen values; • involvement in a heterosexual relationship for at least 6 months prior to surgery.
(§3) The patients recruited into the study were divided into two main groups on the basis of whether or not they had undergone bilateral nerve sparing surgery (rrp and bnsrrp).
(§4) These two groups were further subdivided into the following subsets:
(§5) c) sildenafil 100 mg+propionyl L-carnitine 2 g+acetyl L-carnitine 2 g;
(§6) d) propionyl L-carnitine 2 g;
(§7) e) acetyl L-carnitine 2 g.
(§8) f) propionyl L-carnitine 2 g+acetyl L-carnitine 2 g;
(§9) g) sildenafil 100 mg+propionyl L-carnitine 2 g;
(§10) h) sildenafil 100 mg+acetyl L-carnitine 2 g.
(§11) The carnitines (acetyl L-carnitine and propionyl L-carnitine) were administered orally twice daily (1 g×2/day).
(§12) Sildenafil was administered (as required) and taken 1-2 hours before sexual intercourse at a dose of 100 mg.
(§13) The placebo was administered in the place of acetyl L-carnitine and/or propionyl L-carnitine and/or sildenafil.
(§14) After 4 months' treatment the following variables were analysed:
(§15) 1. erectile function (evaluated by “IIEF-15” scores: IIEF=International Index of Erectile Function);
(§16) 2. satisfaction with sexual intercourse (IIEF-15);
(§17) 4. general sexual well-being (IIEF-15);

[2] = system: Patients undergoing bilateral nerve-sparing radical retropubic prostatectomy (bnsrrp); assay: Clinical trial: recording of nocturnal penile tumescence (NPT) with RigiScan, bnsrrp patients; type: in vivo, human; details: total duration over three nights
Procedure: as §1, §2, §3, §4, §5, §6, §7, §8, §9, §10, §11, §12, §13, §14
(§18) 5. recording of nocturnal penile tumescence (NPT) [evaluated with RigiScan (Dacomed-Minnesota). A >70% increase in rigidity compared to baseline at the base of the penis and >60% at the upper end of the penis, a >2 cm increase in circumference at the upper end of the penis and >3 cm at the base were considered “complete erection”. The total duration (minutes) of the recording period on three nights was assessed.

[3] = system: Patients undergoing radical retropubic prostatectomy (rrp) without bilateral sparing of the neurovascular bundles; assay: Randomised, double-blind placebo-controlled clinical trial: IIEF-15 scores after 4 months' treatment, rrp patients; type: in vivo, human; details: rrp patients without nerve sparing
Procedure: as §1, §2, §3, §4, §5, §6, §7, §8, §9, §10, §11, §12, §13, §14, §15, §16, §17

[4] = system: Patients undergoing radical retropubic prostatectomy (rrp) without bilateral sparing of the neurovascular bundles; assay: Clinical trial: recording of nocturnal penile tumescence (NPT) with RigiScan, rrp patients; type: in vivo, human; details: rrp patients without nerve sparing, total duration over three nights
Procedure: as §1, §2, §3, §4, §5, §6, §7, §8, §9, §10, §11, §12, §13, §14, §18

patients undergoing rrp = details: cited from earlier work
[5] = system: patients undergoing bnsrrp; details: cited from earlier work
[6] = after therapy (4 months' treatment)

SMILES | Erectile function, mean ± s.d. [1, 6] [IIEF 15 Score] | General sexual well-being, mean ± s.d. [1, 6] [IIEF 15 score] | Orgasm, mean ± s.d. [1, 6] [IIEF 15 score] | Satisfaction with sexual intercourse, mean ± s.d. [1, 6] [IIEF 15 score] | Erectile function, mean ± s.d. ([1]; before therapy (baseline)) [IIEF 15 Score] | General sexual well-being, mean ± s.d. ([1]; before therapy (baseline)) [IIEF 15 score] | Orgasm, mean ± s.d. ([1]; before therapy (baseline)) [IIEF 15 score] | Satisfaction with sexual intercourse, mean ± s.d. ([1]; before therapy (baseline)) [IIEF 15 score] | Recording of nocturnal penile tumescence (NPT), mean ± s.d. [2, 6] [min] | Recording of nocturnal penile tumescence (NPT), mean ± s.d. ([2]; before therapy (baseline)) [min] | Erectile function, mean ± s.d. [3, 6] [IIEF 15 score] | General sexual well-being, mean ± s.d. [3, 6] [IIEF 15 score] | Orgasm, mean ± s.d. [3, 6] [IIEF 15 score] | Satisfaction with sexual intercourse, mean ± s.d. [3, 6] [IIEF 15 score] | Erectile function, mean ± s.d. ([3]; before therapy (baseline)) [IIEF 15 score] | General sexual well-being, mean ± s.d. ([3]; before therapy (baseline)) [IIEF 15 score] | Orgasm, mean ± s.d. ([3]; before therapy (baseline)) [IIEF 15 score] | Satisfaction with sexual intercourse, mean ± s.d. ([3]; before therapy (baseline)) [IIEF 15 score] | Recording of nocturnal penile tumescence (NPT), mean ± s.d. [4, 6] [min] | Recording of nocturnal penile tumescence (NPT), mean ± s.d. ([4]; before therapy (baseline)) [min] | other results
CCCc1nn(C)c2c(=O)[nH]c(-c3cc(S(=O)(=O)N4CCN(C)CC4)ccc3OCC)nc12 [Sildenafil 100 mg, sildenafil] | 21.7 ± 6.8 | 5.4 ± 2.7 | 5.9 ± 2.9 | 4.8 ± 2.5 | 11.9 ± 4.0 | 2.7 ± 1.0 | 3.0 ± 0.9 | 3.1 ± 1.1 | 85.9 ± 14.3 | 70.4 ± 13.2 | 9.2 ± 1.9 | 2.4 ± 2.0 | 2.2 ± 0.9 | 2.9 ± 1.6 | 3.8 ± 2.9 | 1.1 ± 0.8 | 0.9 ± 0.6 | 1.3 ± 0.8 | 39.1 ± 7.9 | 37.1 ± 8.5 | Patients with recovery of sexual function (patients undergoing rrp): approximately 15%; Patients with recovery of sexual function [5]: approximately 45%
CCC(=O)O[C@H](CC(=O)[O-])C[N+](C)(C)C [Propionyl L-carnitine 2 g, propionyl L-carnitine] | 18.1 ± 3.2 | 4.1 ± 0.9 | 4.1 ± 1.1 | 3.9 ± 1.1 | 12.2 ± 3.9 | 2.9 ± 1.6 | 3.0 ± 1.1 | 3.2 ± 1.2 | 77.1 ± 16.1 | 68.2 ± 13.5 | 4.0 ± 1.1 | 1.4 ± 0.5 | 1.0 ± 0.3 | 1.9 ± 0.6 | 3.3 ± 1.1 | 1.3 ± 0.5 | 0.7 ± 0.3 | 1.7 ± 0.4 | 36.4 ± 5.3 | 35.0 ± 9.1 | 
CC(=O)O[C@H](CC(=O)[O-])C[N+](C)(C)C [Acetyl L-carnitine 2 g, acetyl L-carnitine] | 17.2 ± 3.5 | 3.9 ± 1.1 | 4.0 ± 0.9 | 4.0 ± 1.1 | 11.3 ± 3.8 | 2.9 ± 1.0 | 3.2 ± 1.1 | 3.1 ± 1.1 | 79.0 ± 12.3 | 70.8 ± 14.9 | 4.1 ± 1.0 | 1.2 ± 0.5 | 0.9 ± 0.4 | 1.9 ± 0.6 | 3.2 ± 1.1 | 1.0 ± 0.4 | 0.8 ± 0.6 | 1.8 ± 0.8 | 38.2 ± 5.7 | 37.7 ± 8.8 | 
